≈ marks a conversion by molar mass, not a printed value. Where two headings read alike, the source gives them in different places.
Columns and labels:
MBHA DNA substrate = assay: Fluorescent intercalation displacement (FID) assay, ethidium bromide; type: binding; conditions: FID; mean ± SD; read-out: DNA Binding (Ethidium Bromide) EC50
Protocol: Fluorescent intercalation displacement (FID) assays (Boger, et al. (2001) J. Am. Chem. Soc. 123:5878-5891) were used to measure the ability of a compound to bind the MBHA substrate. The concentration at which half the ethidium bromide is displaced (EC50) was determined using the different conditions as above to more closely mimic the conditions of a standard helicase assay. Each 100 μL reaction contained 25 mM MOPS pH 6.5, 0.16 μM MBHA DNA substrate (lacking Cy5 and IBQ-RQ modifications), 2 μM ethidium bromide, and various concentrations of test compound. Fluorescence of ethidium bromide was monitored using excitation and emission wavelengths of 545 and 595 nm, respectively, on a Cary Eclipse fluorescence spectrophotometer in white 96-well plates. The amount of ethidium bromide-DNA complex fluorescence was used to estimate the ability of compounds to bind DNA, and therefore displace the fluorescent intercalator (ethidium bromide).
In Equation 4, Fc is the fluorescence in the presence of the compound, F(−) is the average DMSO-only negative controls, and F(+) is the average positive controls (100 μM berenil). EC50 values were from a normalized dose-response curve.
These twelve hits were then subjected to a counterscreen designed to independently identify DNA binding compounds using a modified fluorescent intercalator displacement (FID) assay (Boger, et al. (2001) supra). The FID assay used ethidium bromide to judge a compound's ability to bind DNA and was based on the assumption that a DNA binding compound would displace a fluorescent DNA intercalating agent, leading to an observable decrease in observed fluorescence. Compounds were tested at 1.5 μM in the presence of the 25 base pair substrate used in the helicase assays.

NS3h_2a(JFH1) = biological target: T1, NS3h_2a(JFH1) (Hepatitis C virus genotype 2a, UniProt Q99IB8); assay: NS3 intrinsic protein fluorescence titration; type: binding, hepatitis C virus genotype 2a(JFH1); conditions: corrected for inner filter effects
T1 construct: truncated C-terminally His-tagged NS3 proteins lacking the N-terminal protease, called NS3h; His-tag (C); made in house
Protocol: Compound effects on NS3 intrinsic protein fluorescence were determined by adding aliquots of each compound (1 μl of a 1 mM solution in DMSO) sequentially to 50, 100, or 200 nM of NS3h_2a(JFH1), or 100 nM scNS4A-NS3 dissolved in 2 ml of 25 mM MOPS pH 7, 1.25 mM MgCl2, 0.01% (v/v) TWEEN 20 and 0.3 mM DTT. The titrations were performed in a stirred, temperature-controlled 1 cm cuvette at 23° C. in a Cary Eclipse Fluorescence Spectrophotometer (Agilent Technologies). Intrinsic protein fluorescence was recorded by exciting the sample at 280 nm and reading emission at 340 nm. Excitation and emission slit widths were set to 5 and 10 nm, respectively. All raw fluorescence data were corrected for sample dilution and inner filter effects using Equation 5: Fc=Fobs(V0+Vi)/V0*10^(Aex+Aem/2) (Equation 5) where Fc is corrected fluorescence, Fobs is observed fluorescence, V0 is initial sample volume, Vi is total volume of titrant added, Aex is the absorbance of the solution at the excitation wavelength (280 nm), and Aem is the absorbance of the solution at the emission wavelength (340 nm). Absorbance was calculated at each point in the titrations from extinction coefficients for each compound in titration buffer, which were calculated at 280 nm and 340 nm using four different compound concentrations. […] Fc=F0−(ΔFmax*[…]/(Kd^n+(C)^n)) (Equation 6) In equation 6, […], F0 is fluorescence in the absence of compound, ΔFmax is the maximum change in fluorescence, n is the Hill coefficient, and C is compound concentration.
To examine the direct interaction of the compounds with NS3, the effect of a select few compound on NS3 intrinsic protein fluorescence was analyzed. This technique has been widely used to monitor the interaction of NS3 with its nucleic acid ligands (Lam, et al. (2004) Nucleic Acids Res. 32:4060-4070; Levin & Patel (2002) J. Biol. Chem. 277:29377-29385; Preugschat, et al. (1996) J. Biol. Chem. 271:24449-24457) and other small molecules (Belon, et al. (2010) supra). […] Of note is the fact that, unlike compounds that simply compete for the nucleic acid binding site (e.g., (BIP)2B; Belon, et al. (2010) supra), the primuline derivatives bound NS3h cooperatively as evident from their sigmoid binding isotherms and Hill coefficients greater than one (Equation 6). When compounds were tested against scNS4A-NS3, binding again was detected and apparent affinity for the full-length complex was about 5 times higher than it was for NS3h.

[1] = Absorbance and fluorescence properties; type: physicochemical; conditions: for Absorbance ∈: extinction coefficient
Text: Most of the compounds isolated from the two yellow dyes were fluorescent, absorbing light around 340 nm, and emitting near 420 nm. Their extinction coefficient and peak absorption wavelengths increased as the length of the benzothiazole oligomer increased. Their relative fluorescence decreased with the length of the benzothiazole chain. None of the compounds absorbed light near either the absorption or emission wavelengths of the Cy5-labeled MBHA substrate, or the wavelengths where the fluorescence of ethidium bromide stained DNA, SYBER green I-stained DNA, NS3-catalyzed peptide cleavage, or ATP hydrolysis were measured.
When directly compared with P4, the semi-synthetic primuline derivatives have a sharper absorbance peak centered near 360 nm, and they emit 3-15 times more light when excited at their absorbance maximum. […] Some compounds, like 12, stained both the cytoplasm and nucleus, but they also stained glass coverslips.

[2] = Aqueous solubility (direct UV kinetic); type: physicochemical; conditions: kinetic from dmso stock, read-out: solubility
Protocol: Solubility analysis was performed using a direct UV kinetic solubility method in a 96-well format. All liquid dispense and transfer steps were performed with the FREEDOM EVO automated liquid handler (Tecan, US). Solubility measurements were performed in an aqueous buffer solution (PRISMA HT, pION Inc.) at pH 5.0, 6.2 and 7.4, in duplicate. Solubility measurements were also performed in 1×PBS pH 7.4, and in MOPS buffer pH 6.5. Samples were incubated at room temperature for a minimum of […] to achieve equilibrium, then filtered to remove any precipitate formed. The concentration of the compounds was measured by UV absorbance (250-498 nm) using the […] M200 (Tecan, US) and compared to the spectra of the precipitation-free reference solutions. Spectroscopically pure 1-Propanol (Sigma) was used as a cosolvent to suppress precipitation in the reference solutions. The solubility of each compound was determined using pSOL Evolution Plus software v3.2 (pION Inc) and was expressed as the concentration (μg/mL) of a solute in a saturated solution. Diclofenac Na (highly soluble) and Dipyridamole (poorly to moderately soluble) were used as standards. Standards and test compound stocks were made in 100% DMSO. […]

[3] = aqueous with cosolvent or surfactant or cyclodextrin, mock assay matrix (MOPS, TWEEN 20, 5% DMSO) at pH 6.5

T1 sequence (Q99IB8 1196-1661): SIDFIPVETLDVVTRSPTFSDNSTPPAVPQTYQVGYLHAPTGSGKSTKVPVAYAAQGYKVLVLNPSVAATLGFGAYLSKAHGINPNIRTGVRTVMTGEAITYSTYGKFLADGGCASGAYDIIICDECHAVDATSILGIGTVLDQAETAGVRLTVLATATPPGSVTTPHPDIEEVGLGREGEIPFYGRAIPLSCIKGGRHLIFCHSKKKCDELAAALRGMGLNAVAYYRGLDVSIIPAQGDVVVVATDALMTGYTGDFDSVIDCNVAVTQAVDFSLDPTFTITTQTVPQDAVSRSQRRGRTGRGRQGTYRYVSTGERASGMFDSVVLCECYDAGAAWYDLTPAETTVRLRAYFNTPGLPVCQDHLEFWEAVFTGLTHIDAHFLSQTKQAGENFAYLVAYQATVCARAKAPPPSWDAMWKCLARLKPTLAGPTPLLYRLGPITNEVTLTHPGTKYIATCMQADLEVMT

| Compound | EC50 (MBHA DNA substrate) | interaction with NS3 (intrinsic protein fluorescence) (NS3h_2a(JFH1)) | Absorbance λmax [1] | Fluorescence Emmax [1] | Fluorescence RFU@ 10 μM [1] | Absorbance ∈ [1] | solubility [2, 3] | solubility ([2]; aqueous buffer, MOPS buffer (25 mM MOPS, 1.25 mM MgCl2, 2% DMSO) at pH 6.5) |
| --- | --- | --- | --- | --- | --- | --- | --- | --- |
| Cc1ccc2nc(-c3ccc4nc(-c5ccc6nc(-c7ccc(N)cc7)sc6c5)sc4c3)sc2c1S(=O)(=O)O [Compound P3, 2″-(4-aminophenyl)-6-methyl-[2,6′:2′,6″-terbenzo[d]thiazole]-7-sulfonic acid] | 55 ± 20 µM |  |  |  |  |  |  |  |
| Cc1ccc2nc(-c3ccc4nc(-c5ccc(NC(=O)c6ccc(C(F)(F)F)cc6)cc5)sc4c3)sc2c1S(=O)(=O)O [Compound 12, 6-methyl-2′-(4-(4-(trifluoromethyl)benzamido)phenyl)-[2,6′-bibenzo[d]thiazole]-7-sulfonic acid] |  | clear interaction | 356 nm | 498 nm | 158 RFU | 42,750 M^−1cm^−1 |  |  |
| Cc1ccc2nc(-c3ccc4nc(-c5ccc(NC(=O)c6ccc(F)cc6)cc5)sc4c3)sc2c1S(=O)(=O)O.N [Compound 7, 2′-(4-(4-fluorobenzamido)phenyl)-6-methyl-[2, bibenzo[d]thiazole]-7-sulfonic acid] |  |  | 356 nm | 496 nm | 111 RFU | 24,950 M^−1cm^−1 | 129 µM |  |
| Cc1ccc2nc(-c3ccc4nc(-c5ccc(N)cc5)sc4c3)sc2c1S(=O)(=O)O [Compound P2a, 2′-(4-aminophenyl)-6-methyl-[2,6′-bibenzo[d]thiazole]-7-sulfonic acid] | > 100 µM |  | 366 nm | 553 nm | 15 RFU | 38,550 M^−1cm^−1 |  |  |
| Cc1ccc2nc(-c3ccc4nc(-c5ccc(NC(=O)c6ccc(C(C)(C)C)cc6)cc5)sc4c3)sc2c1S(=O)(=O)O [Compound 13, 2′-(4-(4-(tert-butyl)benzamido)phenyl)-6-methyl-[2,6′-bibenzo[d]thiazole]-7-sulfonic acid] |  |  | 356 nm | 502 nm | 164 RFU | 37,150 M^−1cm^−1 |  |  |
| Cc1ccc2nc(-c3ccc4nc(-c5ccc6nc(-c7ccc8nc(-c9ccc(N)cc9)sc8c7)sc6c5)sc4c3)sc2c1S(=O)(=O)O [Compound P4, 2′″-(4-aminophenyl)-6-methyl-[2,6′:2″,6′″-quaterbenzo[d]thiazole]-7-sulfonic acid] | 15 ± 3 µM |  | 382 nm | 467 nm | 3 RFU | 32,000 M^−1cm^−1 |  |  |
| Cc1ccc2nc(-c3ccc4nc(-c5ccc(NC(=O)c6ccc7nc(-c8ccc(N)cc8)sc7c6)cc5)sc4c3)sc2c1S(=O)(=O)O [Compound 35, 2′-(4-(2-(4-aminophenyl)benzo[d]thiazole-6-carboxamido)phenyl)-6-methyl-[2,6′-bibenzo[d]thiazole]-7-sulfonic acid] |  |  | 361 nm | 532 nm | 2 RFU | 42,000 M^−1cm^−1 |  |  |
| Cc1ccc2nc(-c3ccc4nc(-c5ccc(NC(=O)c6cc(C(F)(F)F)ccc6F)cc5)sc4c3)sc2c1S(=O)(=O)O [Compound 25, 2′-(4-(2-fluoro-5-(trifluoromethyl)benzamido)phenyl)-6-methyl-[2,6′-bibenzo[d]thiazole]-7-sulfonic acid] |  |  | 355 nm | 497 nm | 159 RFU | 41,750 M^−1cm^−1 |  |  |
| Cc1ccc2nc(-c3ccc4nc(-c5ccc(NC(=O)c6cc(C(F)(F)F)cc(C(F)(F)F)c6)cc5)sc4c3)sc2c1S(=O)(=O)O [Compound 24, 2′-(4-(3,5-bis(trifluoromethyl)benzamido)phenyl)-6-methyl-[2,6′-bibenzo[d]thiazole]-7-sulfonic acid] |  | clear interaction | 355 nm | 497 nm | 121 RFU | 45,650 M^−1cm^−1 | 180 µM (≈ 125 µg/mL) |  |
| Cc1ccc2nc(-c3ccc4nc(-c5ccc(NC(=O)c6cccnc6)cc5)sc4c3)sc2c1S(=O)(=O)O [Compound 31, 6-methyl-2′-(4-(nicotinamido)phenyl)-[2,6′-bibenzo[d]thiazole]-7-sulfonic acid] |  |  |  |  |  |  |  | > 100 µM |
| Cc1ccc2nc(-c3ccc4nc(-c5ccc(NC(=O)c6ccc(Br)cc6)cc5)sc4c3)sc2c1S(=O)(=O)O [Compound 15, 2′-(4-(4-bromobenzamido)phenyl)-6-methyl-[2,6′-bibenzo[d]thiazole]-7-sulfonic acid] |  |  | 356 nm | 497 nm | 209 RFU | 51,600 M^−1cm^−1 |  |  |
| Cc1ccc2nc(-c3ccc4nc(-c5ccc(NC(=O)c6ccc(Cl)c(Cl)c6)cc5)sc4c3)sc2c1S(=O)(=O)O [Compound 18, 2′-(4-(3,4-dichlorobenzamido)phenyl)-6-methyl-[2,6′-bibenzo[d]thiazole]-7-sulfonic acid] |  |  | 356 nm | 501 nm | 203 RFU | 44,000 M^−1cm^−1 | 2.6 µM (≈ 1.63 µg/mL) |  |
| Cc1ccc2nc(-c3ccc4nc(-c5ccc(NC(=O)c6ccc(N)cc6)cc5)sc4c3)sc2c1S(=O)(=O)O [Compound 6, 2′-(4-(4-aminobenzamido)phenyl)-6-methyl-[2,6′-bibenzo[d]thiazole]-7-sulfonic acid] |  |  | 360 nm | 429 nm | 4 RFU | 36,600 M^−1cm^−1 |  |  |
